Experimental findings from patent publication US20250382273A1 (INSTITUT NATIONAL DE LA SANTE ET DE LA RECHERCHE MEDICALE, priority 2022, published 2025) are described below.

This experiment relates to M. tuberculosis H37Rv_gfp. The class given is cell-based, Mycobacterium tuberculosis.
Where [1] appears, read: in combination with pretomanid 20 ng·mL−1, 5 days at 37° C., […], read-out: EC50 H37Rv_gfp.

Read-outs that look alike come from different tables or passages of the source.

Broadly, the EC50 is the midpoint of the concentration-response curve. Regarding `O=C(Nc1nc2ccc(C3CCCCC3)cc2s1)[C@@H]1C2C=CC(C2)[C@@H]1C(=O)O` (stereo partly shown) [Example 52, 3-[(6-cyclohexyl-1,3-benzothiazol-2-yl)carbamoyl]bicyclo[2.2.1]hept-5-ene-2-carboxylic acid], the EC50 under setting [1] is less than 1000 nM.
For `O=C(Nc1nc2ccc(Oc3ccccc3)cc2s1)[C@@H]1C2C=CC(C2)[C@@H]1C(=O)O` (stereo partly shown) [Example 17, 3-[(6-phenoxy-1,3-benzothiazol-2-yl)carbamoyl]bicyclo[2.2.1]hept-5-ene-2-carboxylic acid], the EC50 under setting [1] was less than 1000 nM.
Still for that read-out and setting: for `O=C1[C@@H]2C3C=CC(C3)[C@@H]2C(=O)N1c1nc2ccc(Nc3ccnc(C(F)(F)F)c3)cc2s1` [Example 90, 4-[6-[[2-(trifluoromethyl)-4-pyridyl]amino]-1,3-benzothiazol-2-yl]-4-azatricyclo[5.2.1.02,6]dec-8-ene-3,5-dione] the value was less than 1000 nM; for `CCc1ccc2nc(NC(=O)[C@@H]3C4C=CC(C4)[C@@H]3C(=O)O)sc2c1` (stereo partly shown) [Example 11, 3-[(6-ethyl-1,3-benzothiazol-2-yl)carbamoyl]bicyclo[2.2.1]hept-5-ene-2-carboxylic acid], less than 1000 nM.
The same measure, in the same setting: then `O=C(Nc1nc2ccc(-c3ccc(OC(F)(F)F)cc3)cc2s1)[C@@H]1C2C=CC(C2)[C@@H]1C(=O)O` (stereo partly shown) [Example 62, 3-[[6-[4-(trifluoromethoxy)phenyl]-1,3-benzothiazol-2-yl]carbamoyl]bicyclo[2.2.1]hept-5-ene-2-carboxylic acid], with less than 1000 nM; and `O=C(Nc1nc2ccc(Nc3ccc(OC(F)(F)F)cn3)cc2s1)[C@@H]1C2C=CC(C2)[C@@H]1C(=O)O` (stereo partly shown) [Example 93, 3-[[6-[[5-(trifluoromethoxy)-2-pyridyl]amino]-1,3-benzothiazol-2-yl]carbamoyl]bicyclo[2.2.1]hept-5-ene-2-carboxylic acid], with less than 1000 nM.
Still for that read-out and setting: for `O=C1[C@@H]2[C@H](C(=O)N1c1nc3ccc(OC(F)(F)F)cc3s1)[C@@H]1C=C[C@H]2C1` [Example 45, (1R,2S,6R,7S)-4-[6-(trifluoromethoxy)-1,3-benzothiazol-2-yl]-4-azatricyclo[5.2.1.02,6]dec-8-ene-3,5-dione] the value was 1000 to 5000 nM.
In the case of `O=C(Nc1nc2ccc(F)cc2s1)[C@@H]1C2C=CC(C2)[C@@H]1C(=O)O` (stereo partly shown) [Example 42, 3-[(6-fluoro-1,3-benzothiazol-2-yl)carbamoyl]bicyclo[2.2.1]hept-5-ene-2-carboxylic acid], the concentration giving a half-maximal response (EC50) under setting [1] lay in the range of 1000 to 5000 nM.
For `O=C(Nc1nc2ccc(C#CC3CC3)cc2s1)[C@@H]1C2C=CC(C2)[C@@H]1C(=O)O` (stereo partly shown) [Example 79, 3-[[6-(2-cyclopropylethynyl)-1,3-benzothiazol-2-yl]carbamoyl]bicyclo[2.2.1]hept-5-ene-2-carboxylic acid], under setting [1], the EC50 is less than 1000 nM.
On to `CC(C)(C)c1ccc2nc(NC(=O)[C@@H]3C4C=CC(C4)[C@@H]3C(=O)O)sc2c1` (stereo partly shown) [Example 12, 3-[(6-tert-butyl-1,3-benzothiazol-2-yl)carbamoyl]bicyclo[2.2.1]hept-5-ene-2-carboxylic acid], for which the concentration giving a half-maximal response (EC50) under setting [1] was less than 1000 nM.
Turning to `O=C(Nc1nc2ccc(Oc3ccnc(C(F)(F)F)c3)cc2s1)[C@@H]1C2C=CC(C2)[C@@H]1C(=O)O` (stereo partly shown) [Example 32, 3-[[6-[[2-(trifluoromethyl)-4-pyridyl]oxy]-1,3-benzothiazol-2-yl]carbamoyl]bicyclo[2.2.1]hept-5-ene-2-carboxylic acid], the EC50 is less than 1000 nM under setting [1] and 320 nM (in combination with pretomanid, unit inferred, read-out: average EC50 H37Rv_gfp).
As to `O=C(Nc1nc2ccc(Nc3cc(F)ccn3)cc2s1)[C@@H]1C2C=CC(C2)[C@@H]1C(=O)O` (stereo partly shown) [Example 85, 3-[[6-[(4-fluoro-2-pyridyl)amino]-1,3-benzothiazol-2-yl]carbamoyl]bicyclo[2.2.1]hept-5-ene-2-carboxylic acid], under setting [1], the EC50 was less than 1000 nM.
Regarding `O=C1[C@@H]2C3C=CC(C3)[C@@H]2C(=O)N1c1nc2ccc(-c3ccc(F)nc3)cc2s1` [Example 65, (1R,2S,6R,7S)-4-[6-(6-fluoro-3-pyridyl)-1,3-benzothiazol-2-yl]-4-azatricyclo[5.2.1.02.6]dec-8-ene-3,5-dione], the concentration giving a half-maximal response (EC50) under setting [1] lay within 1000 to 5000 nM.
On to `Cc1cc(C)c2nc(NC(=O)[C@@H]3C4C=CC(C4)[C@@H]3C(=O)O)sc2c1` (stereo partly shown) [Example 13, 3-[(4,6-dimethyl-1,3-benzothiazol-2-yl)carbamoyl]bicyclo[2.2.1]hept-5-ene-2-carboxylic acid], for which, under setting [1], the EC50 is less than 1000 nM.
The same measure, in the same setting: for `Cc1cccc2sc(NC(=O)[C@@H]3C4C=CC(C4)[C@@H]3C(=O)O)nc12` (stereo partly shown) [Example 16, 3-[(4-methyl-1,3-benzothiazol-2-yl)carbamoyl]bicyclo[2.2.1]hept-5-ene-2-carboxylic acid] the value was less than 1000 nM; for `COc1cc2nc(NC(=O)[C@@H]3C4C=CC(C4)[C@@H]3C(=O)O)sc2cc1OC` (stereo partly shown) [Example 9, 3-[(5,6-dimethoxy-1,3-benzothiazol-2-yl)carbamoyl]bicyclo[2.2.1]hept-5-ene-2-carboxylic acid], 5000 to 10000 nM; for `O=C(Nc1nc2ccc(Nc3ccc(C(F)(F)F)cn3)cc2s1)[C@@H]1C2C=CC(C2)[C@@H]1C(=O)O` (stereo partly shown) [Example 96, 3-[[6-[[5-(trifluoromethyl)-2-pyridyl]amino]-1,3-benzothiazol-2-yl]carbamoyl]bicyclo[2.2.1]hept-5-ene-2-carboxylic acid], 1000 to 5000 nM.
Still for that read-out and setting: for `Cc1cc2nc(NC(=O)[C@@H]3C4C=CC(C4)[C@@H]3C(=O)O)sc2cc1C` (stereo partly shown) [Example 14, 3-[(5,6-dimethyl-1,3-benzothiazol-2-yl)carbamoyl]bicyclo[2.2.1]hept-5-ene-2-carboxylic acid] the value was less than 1000 nM.
Take `O=C1[C@@H]2C3C=CC(C3)[C@@H]2C(=O)N1c1nc2ccc(Nc3ccnc(F)c3)cc2s1` [Example 98, 4-[6-[(2-fluoro-4-pyridyl)amino]-1,3-benzothiazol-2-yl]-4-azatricyclo[5.2.1.02,6]dec-8-ene-3,5-dione]: the EC50 (read-out: EC50 H37Rv_gfp) fell in the range of 5000 to 10000 nM.
In the case of `Cc1ccnc(Oc2ccc3nc(NC(=O)[C@@H]4C5C=CC(C5)[C@@H]4C(=O)O)sc3c2)c1` (stereo partly shown) [Example 29, 3-[[6-[(4-methyl-2-pyridyl)oxy]-1,3-benzothiazol-2-yl]carbamoyl]bicyclo[2.2.1]hept-5-ene-2-carboxylic acid], the half-maximal effective concentration (EC50) under setting [1] is less than 1000 nM.
On the same count and under the same terms, then `O=C(Nc1nc2ccc(Nc3cccc(F)n3)cc2s1)[C@@H]1C2C=CC(C2)[C@@H]1C(=O)O` (stereo partly shown) [Example 88, 3-[[6-[(6-fluoro-2-pyridyl)amino]-1,3-benzothiazol-2-yl]carbamoyl]bicyclo[2.2.1]hept-5-ene-2-carboxylic acid], with less than 1000 nM.
On the same count and under the same terms, for `O=C1[C@@H]2[C@H](C(=O)N1c1nc3ccc(-c4ccoc4)cc3s1)[C@@H]1C=C[C@H]2C1` [Example 70, (1R,2S,6R,7S)-4-[6-(3-furyl)-1,3-benzothiazol-2-yl]-4-azatricyclo[5.2.1.02,6]dec-8-ene-3,5-dione] the value was 1000 to 5000 nM.
Consider `N#Cc1ccnc(Oc2ccc3nc(N4C(=O)[C@@H]5[C@H](C4=O)[C@@H]4C=C[C@H]5C4)sc3c2)c1` [Example 31, 2-[[2-[(1R,2S,6R,7S)-3,5-dioxo-4-azatricyclo[5.2.1.02,6]dec-8-en-4-yl]-1,3-benzothiazol-6-yl]oxy]pyridine-4-carbonitrile], for which the concentration giving a half-maximal response (EC50) under setting [1] fell in the range of 1000 to 5000 nM.
For `O=C(Nc1nc2ccc(O)cc2s1)[C@@H]1C2C=CC(C2)[C@@H]1C(=O)O` (stereo partly shown) [Example 50, 3-[(6-hydroxy-1,3-benzothiazol-2-yl)carbamoyl]bicyclo[2.2.1]hept-5-ene-2-carboxylic acid], the concentration for a half-maximal effect (EC50) (read-out: EC50 H37Rv_gfp) fell in the range of 10000 to 20000 nM.
